Measurements published in US9682060B2, “Small molecules that induce intrinsic pathway apoptosis” (The Board of Trustees of the University of Illinois, priority 2015, dated 2017).
“Also recorded” adds a separate entry of the source. Where two headings read alike, the source gives them in different places. Starred links: 1 amine or outer side, 2 acyl side, 3 side chain; linkers in the order of their positions; H or OH if unused. Positions of bridges follow the written chain, without caps; N, C: chain ends. Non-standard residues stand in square brackets, D forms with d. Residues, ends and D or L forms follow the SMILES beside them. Chains are numbered I, II in the order given. Actinocin(9to1) = Cc1c2oc3c(C)ccc(C(=O)[*:1])c3nc-2c(C(=O)[*:2])c(N)c1=O; NMeV = CN[C@H](C(=O)O)C(C)C; Sar = CNCC(=O)O

Columns and labels:
[1] = test system: U-937 cells; test: Annexin V/PI cell viability analysis
[2] = test system: U-937 cells; test: Protection assays using small molecule inhibitors (protection from Raptinal, AV/PI); format: cell-based, Human; settings: U-937 cells pretreated 2 hours with agent (concentrations of Table 3), then 10 μM Raptinal 2 hours
Experimental: Protection Assays Using Small Molecule Inhibitors.
. The cells were then co-treated with Raptinal at 10 μM for 2 hours prior to analysis by propidium iodide/FITC-annexin V staining and flow cytometry.

[3] = test system: cancer cell lines (HL-60, SK-MEL-5, U-937); test: Initial screens against cancer cell lines; format: cell-based, Human; settings: cancer cells treated 1 hour, extensive washing to remove compound, read at 24-hour mark
[4] = test system: U-937 cells; format: cell-based, Human; settings: 20 minute treatment, dihydroethidium, flow cytometry
Experimental: Measurement of Cellular ROS Production.
U-937 cells (1 mL of 5×10^5 cells/mL) in Hank's buffered salt solution (HBSS) containing 5 mM glucose were treated with DMSO, 2 or 10 μM Raptinal, 10 μM thapsigargin, 100 μM etoposide (1% DMSO final) and incubated in the presence of 5 μM dihydroethidium a 37° C., 5% CO2 incubator for 20 minutes. […]. The levels of ethidium were assessed by flow cytometry. Live cells were analyzed based on gating on the forward and side scatter properties and the geometric mean of ethidium staining was determined using the software FCS Express.

[5] = test system: adherent cell lines (HOS, H1993, SK-MEL-5, MIA PaCa-2); test: Adherent cell lines: cell death by AV/PI staining and immunoblots; format: cell-based, Human; settings: adherent cell lines; 10 μM (FIG. 1G)
[6] = test system: isolated mitochondria (U-937 cells); test: In vitro cytochrome c release from isolated mitochondria; format: biochemical, Human; settings: respiring and non-respiring conditions, 30 min, Western blot
Experimental: In Vitro Cytochrome c Release from Isolated Mitochondria.
U-937 cells (120×10^6) were washed twice in PBS and resuspended in 800 μL ice-cold lysis buffer (50 mM HEPES, 5 mM DTT, 5 mM PMSF, 25 mM MgCl2, protease cocktail inhibitor, pH 7.5) and the cells were passed through a 26 gauge needle 26 times using a 1 mL syringe until >95% cells were lysed as determined by trypan blue. Isolation buffer (0.25 M sucrose in lysis buffer pH 7.5) was added to the lysed cells (2.4 mL) and mixed by inversion. Debris was removed by centrifugation (500×g. 10 min at 4° C.) and the mitochondria in the supernatant were pelleted by centrifugation (10000×g, 5 min at 4° C.). The mitochondrial pellet was resuspended in washing buffer (2 mL of 50 mM HEPES, 250 mM KCl, 25 mM EDTA, pH 7.5) and incubated on ice for 2 min and centrifuged (12500×g, 5 min). The mitochondrial pellet was resuspended in either non-respiration (300 μL of 50 mM HEPES, 5 mM DTT, 5 mM PMSF, 25 mM MgCl2, protease inhibitor, 250 mM KCl, 25 mM EDTA, pH 7.5) or respiration buffer (300 μL of 50 mM HEPES, […], 5 mM ATP, 0.4 mM ADP, 25 mM sodium succinate, 10 mM potassium phosphate dibasic, pH 7.5). […]

[7] = U-937 cells, 10 μM, time course AV/PI, based on data in FIG. 1F

Cc1cc(=O)[nH]c2c1C(=O)c1c(C)cc(=O)n(C)c1C2=O [DNQ]
Time to 50% death [1, 7]: 6 h

CC[C@@]1(O)C(=O)OCc2c1cc1n(c2=O)Cc2cc3ccccc3nc2-1 [Camptothecin]
Time to 50% death [1, 7]: 5 h

Cc1cc2c(C(C)C)c(O)c(O)c(C=O)c2c(O)c1-c1c(C)cc2c(C(C)C)c(O)c(O)c(C=O)c2c1O [Gossypol]
Time to 50% death [1, 7]: 36 h

Antimycin A
protection from Raptinal-induced cell death [2]: significant to quantitative protection | Time to 50% death [1, 7]: >36 h

N.N.[Cl][Pt][Cl] [Cisplatin, reference compound]
cell death after short treatment and washout [3]: do not have a similar effect | Time to 50% death [1, 7]: >36 h

CN[C@@H](C)C(=O)N[C@H]1CCCC[C@H]2CC[C@@H](C(=O)N[C@@H](c3ccccc3)c3cn(CCCCc4ccc(CCCCn5cc([C@@H](NC(=O)[C@@H]6CC[C@@H]7CCCC[C@H](NC(=O)[C@H](C)NC)C(=O)N76)c6ccccc6)nn5)cc4)nn3)N2C1=O [SM-164]
Time to 50% death [1, 7]: >36 h

CO[C@H]1C[C@@H]2CC[C@@H](C)[C@@](O)(O2)C(=O)C(=O)N2CCCC[C@H]2C(=O)O[C@H]([C@H](C)C[C@@H]2CC[C@@H](O)[C@H](OC)C2)CC(=O)[C@H](C)/C=C(\C)[C@@H](O)[C@@H](OC)C(=O)[C@H](C)C[C@H](C)/C=C/C=C/C=C/1C [Rapamycin]
Time to 50% death [1, 7]: >36 h

Tunicamycin
Time to 50% death [1, 7]: 24 h

O=S(=O)(O)c1cc(N=C=S)ccc1C=Cc1ccc(N=C=S)cc1S(=O)(=O)O [DIDS]
protection from Raptinal-induced cell death [2]: significant protection

O=C1C(=O)N(Cc2ccc(Cl)c(Cl)c2)c2ccccc21 [AA2]
Time to 50% death [1, 7]: >36 h

c1ccc(CN(CCN(Cc2ccccn2)Cc2ccccn2)Cc2ccccn2)nc1 [TPEN]
Time to 50% death [1, 7]: 12 h

COc1cc([C@@H]2c3cc4c(cc3[C@@H](O[C@@H]3O[C@@H]5CO[C@@H](C)O[C@H]5[C@H](O)[C@H]3O)[C@H]3COC(=O)[C@H]23)OCO4)cc(OC)c1O [Etoposide, reference compound]
production of reactive oxygen species (superoxide anion radicals) [4]: not | Time to 50% death [1, 7]: 5 h

C=C(C)[C@H]1Cc2c(ccc3c2O[C@@H]2COc4cc(OC)c(OC)cc4[C@@H]2C3=O)O1 [Rotenone]
protection from Raptinal-induced cell death [2]: significant to quantitative protection | Time to 50% death [1, 7]: 20 h

COc1cccc2c1C(=O)c1c(O)c3c(c(O)c1C2=O)C[C@@](O)(C(=O)CO)C[C@@H]3O[C@H]1C[C@H](N)[C@H](O)[C@H](C)O1 [Doxorubicin]
Time to 50% death [1, 7]: 6 h

CN(NC(=O)CC(=O)NN(C)C(=S)c1ccccc1)C(=S)c1ccccc1 [Elesclomol]
Time to 50% death [1, 7]: >36 h

C=CCc1cccc(/C=N/NC(=O)CN2CCN(Cc3ccccc3)CC2)c1O [PAC-1]
Time to 50% death [1, 7]: >36 h

CCOC(=O)C1=C(N)Oc2ccc(Br)cc2C1C(C#N)C(=O)OCC (stereo not shown) [HA-141]
Time to 50% death [1, 7]: >36 h

CC(C)[C@H](NC(=O)c1ccc2ccccc2n1)C(=O)N[C@@H](CC(=O)O)C(=O)COc1c(F)cccc1F [Q-VD-OPh]
protection from Raptinal-induced cell death [2]: quantitatively blocked the loss in cell viability

CC(=O)O[C@H]1C(=O)[C@@]2(C)[C@H]([C@H](OC(=O)c3ccccc3)[C@]3(O)C[C@H](OC(=O)[C@H](O)[C@@H](NC(=O)c4ccccc4)c4ccccc4)C(C)=C1C3(C)C)[C@]1(OC(C)=O)CO[C@@H]1C[C@@H]2O [Paclitaxel, reference compound]
cell death after short treatment and washout [3]: do not have a similar effect | Time to 50% death [1, 7]: 18 h

COc1[nH]c(=O)c(C(=O)[C@@H](C)C[C@H](C)[C@@H](Cl)CCl)c(O)c1OC [atpenin A5]
protection from Raptinal-induced cell death [2]: did not confer significant protection

CC[C@]1(O)C[C@H]2CN(CCc3c([nH]c4ccccc34)[C@@](C(=O)OC)(c3cc4c(cc3OC)N(C=O)[C@H]3[C@@](O)(C(=O)OC)[C@H](OC(C)=O)[C@]5(CC)C=CCN6CC[C@]43[C@@H]65)C2)C1 [Vincristine]
Time to 50% death [1, 7]: 14 h

O=C(CC(=O)C(F)(F)F)c1cccs1 [TTFA]
protection from Raptinal-induced cell death [2]: did not confer significant protection

CN[C@@H]1C[C@H]2O[C@@](C)([C@@H]1OC)n1c3ccccc3c3c4c(c5c6ccccc6n2c5c31)C(=O)NC4 [Staurosporine]
time of apoptotic death [5]: > 24 h | time of apoptotic death ([1]; U-937 cells, 10 μM (FIG. 1F)): 6 to 12 h | Time to 50% death [1, 7]: 5 h

N#CC(C#N)=NNc1ccc(OC(F)(F)F)cc1 [FCCP]
protection from Raptinal-induced cell death [2]: significant to quantitative protection

Cc1c2oc3c(C)ccc(C(=O)N[C@@H]4C(=O)N[C@H](C(C)C)C(=O)N5CCC[C@H]5C(=O)N(C)CC(=O)N(C)[C@@H](C(C)C)C(=O)O[C@@H]4C)c3nc-2c(C(=O)N[C@@H]2C(=O)N[C@H](C(C)C)C(=O)N3CCC[C@H]3C(=O)N(C)CC(=O)N(C)[C@@H](C(C)C)C(=O)O[C@@H]2C)c(N)c1=O [actinomycin D] (I: T[dV]P[Sar][NMeV] / II: T[dV]P[Sar][NMeV]; ester I:1-I:C, II:1-II:C; linker I:N-II:N via Actinocin(9to1))
protection from Raptinal-induced cell death [2]: did not prevent or delay Raptinal-induced apoptosis

C[C@@H]1C[C@@H]([C@H](O)CC2CC(=O)NC(=O)C2)C(=O)[C@@H](C)C1 [cycloheximide]
protection from Raptinal-induced cell death [2]: did not prevent or delay Raptinal-induced apoptosis

COc1cc2c(c(OC)c1OC)-c1ccc(OC)c(=O)cc1[C@@H](NC(C)=O)CC2 [Colchicine]
Time to 50% death [1]: 15 h

CO[C@@]12[C@H](COC(N)=O)C3=C(C(=O)C(C)=C(N)C3=O)N1C[C@@H]1N[C@@H]12 [Mitomycin C]
Time to 50% death [1, 7]: 20 h

C/C=C(/C)C(=O)O[C@H]1C(C)=C2[C@H]([C@@H]1OC(=O)CCCCCCC)[C@@](C)(OC(C)=O)C[C@H](OC(=O)CCC)[C@@]1(O)[C@H]2OC(=O)[C@@]1(C)O [Thapsigargin, reference compound]
production of reactive oxygen species (superoxide anion radicals) [4]: rapid accumulation of superoxide anion radicals | Time to 50% death [1, 7]: 14 h

CC[C@@H]1/C=C/C=C/C[C@H](C)[C@H](O)[C@](C)(O)C(=O)[C@H](C)[C@@H](O)[C@H](C)C(=O)[C@H](C)[C@@H](O)[C@H](C)/C=C/C(=O)O[C@H]2[C@@H](C)[C@@H](CC1)O[C@@]1(CC[C@@H](C)[C@@H](C[C@H](C)O)O1)[C@@H]2C [oligomycin A]
protection from Raptinal-induced cell death [2]: significant to quantitative protection

COC1=C2C[C@@H](C)C[C@H](OC)[C@H](O)[C@@H](C)/C=C(\C)[C@H](OC(N)=O)[C@@H](OC)/C=C\C=C(/C)C(=O)NC(=CC1=O)C2=O [Geldanamycin]
Time to 50% death [1, 7]: >36 h

B1: Bid: known pro-apoptotic protein; full-length recombinant Bid from R&D Systems (protein, UniProt P55957 1-195, looked up)
chain: MDCEVNNGSSLRDECITNLLVFGFLQSCSDNSFRRELDALGHELPVLAPQWEGYDELQTDGNRSSHSRLGRIEADSESQEDIIRNIARHLAQVGDSMDRSIPPGLVNGLALQLRNTSRSEEDRNRDLATALEQLLQAYPRDMEKEKTMLVLALLLAKKVASHTPSLLRDVFHTTVNFINQNLRTYVRSLARNGMD
modifications: full-length
notes: known pro-apoptotic protein; full-length recombinant Bid from R&D Systems
cytochrome c release from isolated mitochondria [6]: able to induce cytochrome c release; also recorded: capable of releasing cytochrome c under both conditions
